For this test, the system named is MDA-MB-468 complex spheroids with HUVEC/MSC, viability. The test is described as follows: Anticancer human tumor MDA-MB-468 cell line growth inhibition.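 As to all read-outs here: spheroids exposed to agents for seven days.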 The conditions noted are these: for viability, T/C: stronger effect = lower value. From the text: Multicellular complex tumor spheroid response to LSD1 Inhibitor Iadademstat in combination with a variety of drugs and investigational agents in selected tumor cell lines
The current study was undertaken to assess response to LSD1 inhibitors in combination with standard-of-care drugs and investigational agents in solid tumor complex spheroid models as well as in the K-562 leukemia. Complex spheroids include a stromal component modeled by human endothelial cells (HUVEC) and fibroblasts modeled by human mesenchymal stem cells (MSCs). The concentration ranges selected for each drug and investigational agent were based upon clinically achievable concentrations if the clinical Cmax of the agent was known.
Compounds. The drugs and investigational agents used in this study are listed on Table 1. All of the agents used, including staurosporine (NSC755774) and gemcitabine (NSC613327), were obtained from the Developmental Therapeutics Program, NCI. FDA-approved anticancer drugs are available from the NCI at http://dtp.nci.nih.gov/branches/dscb/oncology_drugset_explanation.html. Drugs and investigational agents were >95% pure by proton nuclear magnetic resonance (NMR) and liquid chromatography/mass spectrometry (LC/MS). Stock solutions were prepared at 400x in DMSO, stored at -70 degrees C, and diluted in fresh medium prior to their use. The final concentration of DMSO in cell culture wells never exceeded 0.25% (v/v). The FDA-approved anticancer drug set is available from the Developmental Therapeutics Program at https://dtp.cancer.gov/organization/dscb/obtaining/available_plates.htm. All drugs and investigational agents were tested over a range starting from a high concentration at or near the clinical Cmax and decreasing in half-log increments. If the clinical Cmax for an agent had not been determined, the highest concentration tested was 10 microM.
Cell Lines. The patient-derived cancer cell (PDC) lines: 292921-168-R-J2-PDC, K24384-001-R-PDC, and 521955-158-R2-J5-PDC pancreatic carcinomas, 556581-035-R-J1 ovarian carcinoma, 324938-238-R-J1-PDC, 855422-203-R-J1-PDC and 883617-216-R-J1-PDC urothelial bladder carcinomas, 743489-274-T-PDC renal cell carcinoma, 138582-R-J1 Merkel cell tumor, K60290-347-R-J1 and K57222-313-R-J1-PDC glioblastomas, 653999-131-R-J2-PDC, LG0703-F948-PDC, and 349418-098-R-PDC non-small cell lung carcinomas, 885512-296-R-J2-PDC, 171881-019-R-J1-PDC breast carcinomas and 186277-243-T-J2-PDC and 233499-124-R-J2-PDC colon carcinomas were obtained from the NCI Patient-Derived Models Repository (PDMR, https://pdmr.cancer.gov). The established cell lines NCI/ADR-RES (RRID:CVCL_14520 and OVCAR-5 (RRID:CVCL_1628) ovarian carcinomas, 786-O (RRID:CVCL_1051) and A498 (RRID:CVCL_A498) renal cell carcinoma, NCI-H211 (ATCC, cat. CRL-5824; RRID:CVCL_1529), NCI-H196 (ATCC, cat. CRL-5823, RRID:CVCL_1509), SW 1271 (ATCC, cat. CRL-2177, RRID:CVCL_1716) and NCI-H1876 (ATCC, cat. CRL-5902, RRID:CVCL_1503) small cell lung carcinomas, MDA-MB-231 (RRID:CVCL_0062) and MDA-MB-468 (RRID:CVCL_0419)breast carcinomas (10-12). Pooled donor human umbilical vein endothelial cells (HUVEC, Lonza, cat. CC-2519) and human mesenchymal stem cells (hMSC, Lonza, cat. PT-2501) were purchased from Lonza (Walkersville, MD).
Cell Culture. All cells were maintained in an incubator at 37 degrees C and 5% CO2 with 95% humidity. The PDC lines were cultured according to standard operating procedures established by the NCI PDMR (https://pdmr.cancer.gov). Briefly all PDCs were thawed and cultured in Matrigel-coated flasks prepared with a working solution of 1X Ham's F-12 nutrient mix, without supplementation (Invitrogen, Waltham, MA, cat. 11765054), 100 U/mL penicillin-streptomycin (Invitrogen, cat. 15140122), and 2.5% Matrigel (Corning Inc., Corning, NY, cat. 354248) for the first three passages. […]

[1] abbreviates: curve of first compound, second compound 0.1 µM.
[2] abbreviates: curve of first compound, second compound 0.316 µM.
Setting [3] is: curve of first compound, second compound 1 µM.
Setting [4] is: curve of first compound, second compound 3.16 µM.
Where [5] appears, read: curve of first compound, second compound 10 µM.

Where “and” joins values, the source holds several entries; their conditions need not be identical. Equal values may be shown once.

`CC(C)c1c(-c2ccccc2)nc2c(C#N)c[nH]n2c1=O`: the viability, T/C (as a rule, the result in the treated group divided by that in the control group, in per cent) (compound 0.0316 µM) is 111% and 87.3%; the viability, T/C (compound 0.1 µM) is 101% and 89.5%; the viability, T/C (compound 0.316 µM) was 91.4% and 78.7%; the viability, T/C (compound 1 µM) is 101% and 96.7%; the viability, T/C (compound 3.16 µM) is 92% and 101%; the viability, T/C (compound 10 µM) was 72.1% and 88.9%. For the same compound, the IC50 – broadly, the midpoint of a concentration-inhibition curve – (curve of compound) was greater than 10000 nM.
On to `COc1ccc([C@@H](O)c2cc(-c3ncnc4cc(N5CCOCC5)ccc34)c(F)cc2Cl)nn1`, for which the viability, T/C is, setting by setting: (compound 0.0316 µM) 91.7% and 90.3%; (compound 0.1 µM) 86.8% and 90.4%; (compound 0.316 µM) 82.5% and 71.8%; (compound 1 µM) 58.3% and 51%; (compound 3.16 µM) 32.1% and 29.9%; (compound 10 µM) 14% and 6.59%. Further, the IC50 (curve of compound) is 1480 nM and 1130 nM.
For the compound `NC1CC1c1ccc(-c2cccc(O)c2)cc1` (configuration not stated), the IC50 (compound alone, run of 02/01/2022) is greater than 10000 nM.
Regarding `NC1CCC(NC2CC2c2ccccc2)CC1` (configuration not stated), where the note is “compound 0.316 µM”, the viability, T/C was 96.4% and 88.1% and 98.6%. Under “compound alone, run of 01/24/2022”, the IC50 is > 10000 nM and 9570 nM.
As to `COc1cc(C2c3cc4c(cc3C(OC3OC5COC(C)OC5C(O)C3O)C3COC(=O)C23)OCO4)cc(OC)c1O` (configuration not stated) + NC1CC1c1ccc(-c2cccc(O)c2)cc1, the IC50 by setting is: under setting [1], 57.7 nM; under setting [2], 50.8 nM; under setting [3], 45.5 nM; under setting [4], 47.2 nM; under setting [5], 21 nM. Moreover, the viability, T/C was 88.3% (second compound 0.1 µM, first compound 0.00949 µM); 79.1% (second compound 0.1 µM, first compound 0.03 µM); 27.5% (second compound 0.1 µM, first compound 0.0949 µM); 13% (second compound 0.1 µM, first compound 0.3 µM); 7.49% (second compound 0.1 µM, first compound 0.949 µM); 3.87% (second compound 0.1 µM, first compound 3 µM). Further, the viability, T/C is 107% (second compound 0.316 µM, first compound 0.00949 µM); 69.9% (second compound 0.316 µM, first compound 0.03 µM); 26% (second compound 0.316 µM, first compound 0.0949 µM); 11.5% (second compound 0.316 µM, first compound 0.3 µM); 7.32% (second compound 0.316 µM, first compound 0.949 µM); 3.63% (second compound 0.316 µM, first compound 3 µM). In addition, the viability, T/C was 90% (second compound 1 µM, first compound 0.00949 µM); 64.2% (second compound 1 µM, first compound 0.03 µM); 24.7% (second compound 1 µM, first compound 0.0949 µM); 11.3% (second compound 1 µM, first compound 0.3 µM); 6.82% (second compound 1 µM, first compound 0.949 µM); 3.4% (second compound 1 µM, first compound 3 µM). For the same compound, the viability, T/C by setting is: (second compound 3.16 µM, first compound 0.00949 µM) 89.8%; (second compound 3.16 µM, first compound 0.03 µM) 68.7%; (second compound 3.16 µM, first compound 0.0949 µM) 21%; (second compound 3.16 µM, first compound 0.3 µM) 11%; (second compound 3.16 µM, first compound 0.949 µM) 6.58%; (second compound 3.16 µM, first compound 3 µM) 3.35%. Also, the viability, T/C (second compound 10 µM, first compound 0.00949 µM) is 68.2%; the viability, T/C (second compound 10 µM, first compound 0.03 µM) is 42.8%; the viability, T/C (second compound 10 µM, first compound 0.0949 µM) was 15.8%; the viability, T/C (second compound 10 µM, first compound 0.3 µM) was 14.5%; the viability, T/C (second compound 10 µM, first compound 0.949 µM) is 8.05%; the viability, T/C (second compound 10 µM, first compound 3 µM) is 3.42%.
For `Nc1ncn(C2CC(O)C(CO)O2)c(=O)n1` (configuration not stated) + NC1CC1c1ccc(-c2cccc(O)c2)cc1, the IC50 under setting [1] came out at 16.4 nM; the IC50 under setting [2] came to 19.3 nM; the IC50 under setting [3] was found to be 17.9 nM; the IC50 under setting [4] came out at 15 nM; the concentration for half-maximal inhibition (IC50) under setting [5] worked out at 9.07 nM. Besides, the viability, T/C (second compound 0.1 µM, first compound 0.00316 µM) is 87.3%; the viability, T/C (second compound 0.1 µM, first compound 0.01 µM) is 66.9%; the viability, T/C (second compound 0.1 µM, first compound 0.0316 µM) is 27.2%; the viability, T/C (second compound 0.1 µM, first compound 0.1 µM) was 12.3%; the viability, T/C (second compound 0.1 µM, first compound 0.316 µM) is 9.59%; the viability, T/C (second compound 0.1 µM, first compound 1 µM) was 7.38%. Moreover, the viability, T/C is, setting by setting: (second compound 0.316 µM, first compound 0.00316 µM) 89.9%; (second compound 0.316 µM, first compound 0.01 µM) 74.8%; (second compound 0.316 µM, first compound 0.0316 µM) 31.2%; (second compound 0.316 µM, first compound 0.1 µM) 11.8%; (second compound 0.316 µM, first compound 0.316 µM) 8.68%; (second compound 0.316 µM, first compound 1 µM) 6.69%. Moreover, the viability, T/C reads like this: (second compound 1 µM, first compound 0.00316 µM) 92.4%; (second compound 1 µM, first compound 0.01 µM) 72.2%; (second compound 1 µM, first compound 0.0316 µM) 27.8%; (second compound 1 µM, first compound 0.1 µM) 12.6%; (second compound 1 µM, first compound 0.316 µM) 7.79%; (second compound 1 µM, first compound 1 µM) 7.05%. Further, the viability, T/C was 90.1% (second compound 3.16 µM, first compound 0.00316 µM); 64% (second compound 3.16 µM, first compound 0.01 µM); 24.4% (second compound 3.16 µM, first compound 0.0316 µM); 11.6% (second compound 3.16 µM, first compound 0.1 µM); 8.23% (second compound 3.16 µM, first compound 0.316 µM); 6.83% (second compound 3.16 µM, first compound 1 µM). Besides, the viability, T/C is 69% (second compound 10 µM, first compound 0.00316 µM); 48.1% (second compound 10 µM, first compound 0.01 µM); 25.1% (second compound 10 µM, first compound 0.0316 µM); 11.4% (second compound 10 µM, first compound 0.1 µM); 7.65% (second compound 10 µM, first compound 0.316 µM); 6.35% (second compound 10 µM, first compound 1 µM).

(Values after PubChem BioAssay AID1918954 (Molecular Pharmacology Branch, DTP, NCI, 2023).)
